{"source": "ChEMBL document CHEMBL5705903", "about": "“A DNA Hypomethylation Signature Predicts Antitumor Activity of LSD1 Inhibitors in SCLC” (Cancer Cell, 2015)", "key": {"[1]": {"assay": "AUC (0 to infinity) in mouse at 5.5 mg/kg, ip by HPLC/MS/MS analysis", "assay_type": "ADME, organism-based", "conditions": "in vivo"}, "[2]": {"assay": "Effect on cleaved PARP level in human COLO-668 cells assessed as relative expression at 100 nM measured after 14 days by Western blot analysis (reference value: 3.50)", "assay_type": "functional", "conditions": "time 14 day"}, "[3]": {"assay": "Effect on cleaved PARP level in human NCI-H146 cells assessed as fold change at 100 nM measured after 7 days by Western blot analysis (reference value: 1.00)", "assay_type": "functional", "conditions": "time 7 day"}, "[4]": {"assay": "Half life in mouse tumor at 5 mg/kg, po by HPLC/MS/MS analysis", "assay_type": "ADME, organism-based, Neoplasm"}, "[5]": {"assay": "Effect on cleaved PARP level in human NCI-H510 cells assessed as fold change at 10 nM measured after 7 days by Western blot analysis (reference value: 1.00)", "assay_type": "functional, NCI-H510A", "conditions": "time 7 day"}, "[6]": {"assay": "Effect on cleaved PARP level in human NCI-H889 cells assessed as fold change at 100 nM measured after 10 days by Western blot analysis (reference value: 1.00)", "assay_type": "functional", "conditions": "time 10 day"}, "[7]": {"assay": "Effect on cleaved PARP level in human NCI-H146 cells assessed as relative expression at 1000 nM measured after 10 days by Western blot analysis (reference value: 0.27)", "assay_type": "functional", "conditions": "time 10 day"}, "[8]": {"assay": "Effect on cleaved PARP level in human NCI-H1694 cells assessed as fold change at 100 nM measured after 7 days by Western blot analysis (reference value: 1.00)", "assay_type": "functional", "conditions": "time 7 day"}, "[9]": {"assay": "Effect on cleaved PARP level in human NCI-H69 cells assessed as relative expression at 1000 nM measured after 7 days by Western blot analysis (reference value: 0.02)", "assay_type": "functional", "conditions": "time 7 day"}, "[10]": {"assay": "Effect on cleaved PARP level in human NCI-H1694 cells assessed as relative expression at 1000 nM measured after 10 days by Western blot analysis (reference value: .31)", "assay_type": "functional", "conditions": "time 10 day"}, "[11]": {"assay": "Effect on cleaved PARP level in human NCI-H526 cells assessed as relative expression at 100 nM measured after 7 days by Western blot analysis (reference value: 0.57)", "assay_type": "functional", "conditions": "time 7 day"}, "[12]": {"assay": "Effect on cleaved PARP level in human NCI-H1417 cells assessed as relative expression at 1000 nM measured after 14 days by Western blot analysis (reference value: 0.38)", "assay_type": "functional", "conditions": "time 14 day"}, "[13]": {"assay": "Effect on cleaved PARP level in human NCI-H889 cells assessed as relative expression at 10 nM measured after 10 days by Western blot analysis (reference value: 0.33)", "assay_type": "functional", "conditions": "time 10 day"}, "[14]": {"assay": "Effect on cleaved PARP level in human NCI-H524 cells assessed as relative expression at 1000 nM measured after 10 days by Western blot analysis (reference value: 0.95)", "assay_type": "functional", "conditions": "time 10 day"}, "[15]": {"assay": "Effect on cleaved PARP level in human NCI-H2171 cells assessed as fold change at 1000 nM measured after 14 days by Western blot analysis (reference value: 1.00)", "assay_type": "functional", "conditions": "time 14 day"}, "[16]": {"assay": "Effect on cleaved PARP level in human NCI-H889 cells assessed as fold change at 1000 nM measured after 7 days by Western blot analysis (reference value: 1.00)", "assay_type": "functional", "conditions": "time 7 day"}, "[17]": {"assay": "Effect on cleaved PARP level in human NCI-H2171 cells assessed as fold change at 100 nM measured after 14 days by Western blot analysis (reference value: 1.00)", "assay_type": "functional", "conditions": "time 14 day"}, "[18]": {"assay": "Effect on cleaved PARP level in human NCI-H1694 cells assessed as fold change at 100 nM measured after 10 days by Western blot analysis (reference value: 1.00)", "assay_type": "functional", "conditions": "time 10 day"}, "[19]": {"assay": "Toxicity in rat assessed as neutrophenia measured for 28 days", "conditions": "in vivo, 672 h, time 28 day"}, "[20]": {"assay": "Effect on cleaved PARP level in human NCI-H1694 cells assessed as relative expression at 10 nM measured after 10 days by Western blot analysis (reference value: 0.31)", "assay_type": "functional", "conditions": "time 10 day"}, "[21]": {"assay": "Effect on cleaved PARP level in human COLO-668 cells assessed as relative expression at 10 nM measured after 14 days by Western blot analysis (reference value: 3.50)", "assay_type": "functional", "conditions": "time 14 day"}, "[22]": {"tested_on": "NCI-H1417", "assay": "In vivo inhibition of LSD1 in human NCI-H1417 cells xenografted in nude mouse assessed as change in LBH gene expression measured after 24 hrs post single administration by qRT-PCR analysis", "assay_type": "functional, organism-based", "conditions": "dose 0.02-135 mg/kg"}, "[23]": {"tested_on": "COLO-668", "assay": "Effect on NSE gene expression in human COLO-668 cells at 1 uM measured after 4 to 7 days by qRT-PCR analysis", "assay_type": "functional, cell-based", "conditions": "time 4-7 day"}, "[24]": {"assay": "Effect on cleaved PARP level in human NCI-H526 cells assessed as relative expression at 10 nM measured after 10 days by Western blot analysis (reference value: 0.81)", "assay_type": "functional", "conditions": "time 10 day"}, "[25]": {"tested_on": "NCI-H69", "assay": "Antitumor activity against human NCI-H69 cells xenografted in nude mouse assessed as tumor growth inhibition at 1.5 mg/kg, po administered daily measured twice weekly relative to control", "assay_type": "functional", "conditions": "read-out: TGI"}, "[26]": {"assay": "Effect on cleaved PARP level in human NCI-H2171 cells assessed as relative expression at 100 nM measured after 7 days by Western blot analysis (reference value: 0.02)", "assay_type": "functional", "conditions": "time 7 day"}, "[27]": {"assay": "Effect on cleaved PARP level in human NCI-H146 cells assessed as fold change at 1000 nM measured after 14 days by Western blot analysis (reference value: 1.00)", "assay_type": "functional", "conditions": "time 14 day"}, "[28]": {"tested_on": "NCI-H526", "assay": "In vivo inhibition of LSD1 in human NCI-H526 cells xenografted in nude mouse assessed as change in ANXA6 gene expression measured after 24 hrs post single administration by qRT-PCR analysis", "assay_type": "functional, organism-based", "conditions": "dose 0.06-135 mg/kg"}, "[29]": {"assay": "Cmax in mouse blood at 5 mg/kg, po by HPLC/MS/MS analysis", "assay_type": "ADME, organism-based"}, "[30]": {"assay": "Effect on cleaved PARP level in human NCI-H1694 cells assessed as fold change at 10 nM measured after 14 days by Western blot analysis (reference value: 1.00)", "assay_type": "functional", "conditions": "time 14 day"}, "[31]": {"tested_on": "COLO-668", "assay": "Effect on NCAM gene expression in human COLO-668 cells at 1 uM measured after 4 days by qRT-PCR analysis", "assay_type": "functional, cell-based", "conditions": "time 4.0 day"}, "[32]": {"tested_on": "NCI-H526", "assay": "Effect on global H3K4me2 level in human NCI-H526 cells at 10 to 1000 nM measured after 24 hrs by Western blot analysis", "assay_type": "functional, cell-based", "conditions": "dose 10-1000 nM"}, "[33]": {"tested_on": "NCI-H526", "assay": "In vivo inhibition of LSD1 in human NCI-H526 cells xenografted in nude mouse assessed as change in ANXA6 gene expression administrated daily for 5 days by qRT-PCR analysis", "assay_type": "functional, organism-based", "conditions": "dose 0.02-135 mg/kg, time 5.0 day"}, "[34]": {"tested_on": "SHP77", "assay": "Effect on NSE gene expression in human SHP77 cells at 1 uM measured after 4 to 7 days by qRT-PCR analysis", "assay_type": "functional, cell-based", "conditions": "time 4-7 day"}, "[35]": {"assay": "Effect on cleaved PARP level in human COLO-668 cells assessed as relative expression at 100 nM measured after 10 days by Western blot analysis (reference value: 1.07)", "assay_type": "functional", "conditions": "time 10 day"}, "[36]": {"assay": "Toxicity in dog assessed as effect on ECG measured for 28 days", "parameters": "species or system Canis lupus familiaris", "conditions": "in vivo, 672 h, time 28 day"}, "[37]": {"assay": "Effect on cleaved PARP level in human NCI-H526 cells assessed as relative expression at 1000 nM measured after 14 days by Western blot analysis (reference value: 0.66)", "assay_type": "functional", "conditions": "time 14 day"}}, "note": "Active and inactive are the calls of the source. The calls are words filed in the database; no cut-off is given here.", "data": [{"smiles": "c1ccc([C@@H]2C[C@H]2NC2CCNCC2)cc1", "values": [{"measurement": "AUC(0-inf)", "setting": "[1]", "value": 938, "unit": "ng·h/mL"}]}, {"smiles": "O=C(O)c1ccc(CN2CCC(CN[C@@H]3C[C@H]3c3ccccc3)CC2)cc1", "note": "[GSK2879552]", "values": [{"measurement": "Activity", "setting": "[2]", "value": 0.89}, {"measurement": "fold change (FC)", "setting": "[3]", "value": 1.02}, {"measurement": "half-life", "setting": "[4]", "value": 8.4, "unit": "h"}, {"measurement": "fold change (FC)", "setting": "[5]", "value": 1.27}, {"measurement": "fold change (FC)", "setting": "[6]", "value": 2.25}, {"measurement": "Activity", "setting": "[7]", "value": 0.24}, {"measurement": "fold change (FC)", "setting": "[8]", "value": 1.11}, {"measurement": "Activity", "setting": "[9]", "value": 0.04}, {"measurement": "Activity", "setting": "[10]", "value": 0.22}, {"measurement": "Activity", "setting": "[11]", "value": 0.68}, {"measurement": "Activity", "setting": "[12]", "value": 0.42}, {"measurement": "Activity", "setting": "[13]", "value": 0.55}, {"measurement": "Activity", "setting": "[14]", "value": 0.79}, {"measurement": "fold change (FC)", "setting": "[15]", "value": 2.4}, {"measurement": "fold change (FC)", "setting": "[16]", "value": 1.92}, {"measurement": "fold change (FC)", "setting": "[17]", "value": 1.8}, {"measurement": "fold change (FC)", "setting": "[18]", "value": 0.75}, {"measurement": "Activity", "setting": "[19]", "value": "Toxic"}, {"measurement": "Activity", "setting": "[20]", "value": 0.27}, {"measurement": "Activity", "setting": "[21]", "value": 1.45}, {"measurement": "inhibition", "setting": "[22]", "value": "Dose-Dependent Effect"}, {"measurement": "Activity", "setting": "[23]", "value": "inactive"}, {"measurement": "Activity", "setting": "[24]", "value": 0.46}, {"measurement": "inhibition in vivo at 1.5 mg/kg", "setting": "[25]", "value": 49, "unit": "%"}, {"measurement": "Activity", "setting": "[26]", "value": 0.03}, {"measurement": "fold change (FC)", "setting": "[27]", "value": 0.6}, {"measurement": "inhibition", "setting": "[28]", "value": "Dose-Dependent Effect"}, {"measurement": "Cmax", "setting": "[29]", "value": 720, "unit": "ng/mL"}, {"measurement": "fold change (FC)", "setting": "[30]", "value": 0.85}, {"measurement": "Activity", "setting": "[31]", "value": "inactive"}, {"measurement": "Activity", "setting": "[32]", "value": "inactive"}, {"measurement": "inhibition", "setting": "[33]", "value": "Dose-Dependent Effect"}, {"measurement": "Activity", "setting": "[34]", "value": "inactive"}, {"measurement": "Activity", "setting": "[35]", "value": 0.74}, {"measurement": "Activity", "setting": "[36]", "value": "Toxic"}, {"measurement": "Activity", "setting": "[37]", "value": 0.9}]}]}
